Positions count from the first letter of the chain named. Converted amounts (≈) assume the structure as drawn. Like-named read-outs stand apart in the source and are kept apart here.

Series [1] in a line: in vitro. The settings on record: human, Caco-2.
The nature of series [2]: Microsomal metabolic stability, human. Format: in vitro ADME. The settings on record: pH 7.4; human liver microsomes. (In general: Liver microsomes are a subcellular fraction often used to study metabolism.)
Series [3] addresses T1, IDH2 WT (Homo sapiens, UniProt P48735).
T1 sequence (P48735 40-452): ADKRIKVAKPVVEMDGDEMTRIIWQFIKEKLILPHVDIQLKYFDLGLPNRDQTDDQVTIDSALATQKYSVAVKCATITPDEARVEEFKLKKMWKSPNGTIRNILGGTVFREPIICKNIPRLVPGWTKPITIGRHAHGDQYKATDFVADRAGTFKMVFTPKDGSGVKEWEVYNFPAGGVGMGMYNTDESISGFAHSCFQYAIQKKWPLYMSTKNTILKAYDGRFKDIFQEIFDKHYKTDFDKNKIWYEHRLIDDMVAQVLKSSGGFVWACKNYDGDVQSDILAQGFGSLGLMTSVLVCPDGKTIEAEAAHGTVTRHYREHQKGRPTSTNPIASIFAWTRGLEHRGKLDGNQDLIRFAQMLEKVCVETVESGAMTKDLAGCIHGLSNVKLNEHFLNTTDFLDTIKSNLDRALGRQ
Put plainly: Wild type IDH2 enzyme assay, diaphorase/resazurin coupled.

Series [4] can be described thus: High-throughput kinetic solubility (µSOL), pH 7.4. Format: physicochemical. The settings on record: aqueous solution pH 7.4, pH 7.4, aqueous buffer, kinetic from dmso stock; read-out: HT Kinetic Solubility, Solubility. On the procedure: High-Throughput kinetic solubility test assay
Pion’s patented µSOL assay for kinetic solubility determination was used. In this assay, the classical saturation shake- flask solub ility method was adapted to a 96-well microtiter plate format and a co-solvent method with n- propanol as the […] was utilized. Test compounds were prepared in 10 mM DMSO solutions (45 µ L), and diluted with the co-solve nt to a final drug conce ntration of […]
Samples are incubated at room temperature for 6 hrs t o achieve equilibrium. The samples were then filtered to remove any precipitate formed. The concentrat ion of the compound in the filtrate was measured by UV ab sorbance. […]
used for quantitation of unknown drug concent ration in filtrate. Spectroscopically pure 1- Propanol was used as acosolvent to suppress precipitation in the reference

The nature of series [5]: Human plasma protein binding (rapid equilibrium dialysis, Cyprotex). Format: in vitro ADME. The settings on record: for fraction unbound at 4 h, 5 µM: human, plasma, human plasma. On the technique in general: In equilibrium dialysis free small molecules cross a membrane that holds back macromolecules.
The nature of series [6]: Microsomal metabolic stability, rat. Format: in vitro ADME. As to conditions: pH 7.4; rat liver microsomes.
Series [7] addresses IDH1 WT (Homo sapiens, UniProt O75874). Put plainly: Wild type IDH1 enzyme assay, diaphorase/resazurin coupled. As to conditions: for Emax: read-out: IDH1 WT % EMax. On the technique in general: Alamar Blue is a resazurin reagent that responds to reducing activity.
A short description of series [8]: Microsomal metabolic stability, mouse. Format: in vitro ADME. As to conditions: pH 7.4; mouse liver microsomes.
Series [9] in a line: High-throughput PAMPA (GIT), pH 7.4. Format: in vitro ADME. As to conditions: read-out: HT PAMPA Permeability. The source says: In Vitro Physicochemical and Drug Metabolism Studies:
High-Throughput PAMPA assay
The stirring double- sin k PAMPA method patented by pION Inc. (Billeri ca, MA) was employed to determine the permeability of compounds via PAMPA passive diffusion. The PAMPA lipid membrane consisted of an artificial membrane of a proprietary lipid mixture and dodecane (Pion Inc.), optimized to predict gastrointestinal tract (GIT) passive diffusion permeability, was immobilized on a plastic matrix of a 96 well “donor” filter plate placed above a 96 well “a cceptor” plate. A pH 7.4 solution was used in both donor and acceptor wells. The test articles, stocked in 10 mM DMSO solutions, were diluted to 0.05 mM in aqueous buffer (pH 7.4) , and the concentration of DMSO was 0.5% in the final solution. During the 30-min permeation period at room temperature, the test samples in the donor compartment were stirred using the Gutbox te chnology (Pion Inc.) to reduce the unstirred water layer. The test article concentrations in the donor and acceptor compartments were measured using an UV plate reader (Nano Quant, Infinite 200 […]
PRO, Tecan Inc., Männedorf, Switzerland). Permeability calculations were performed using Pion Inc. software and were expressed in units of 10-6 cm/s. […]

In series [10] the target is T2, R172Q mIDH2 (Homo sapiens, UniProt P48735, R172Q).
T2 sequence (P48735 40-452 R172Q): T1 sequence (P48735 40-452) with R133Q
As to the kind of experiment: mIDH2-R172Q enzyme assay (Reaction Biology), diaphorase/resazurin coupled. The settings on record: for Emax: read-out: IDH2 R172Q % EMax.

The nature of series [11]: Human hepatocyte cytotoxicity (CellTiter-Glo, 72 hr). The settings on record: both, human, cryopreserved human hepatocytes.
Series [12] relates to human hepatocytes. The series is described as above. The settings on record: Homo sapiens, Hepatocyte, read-out: Human Hepatocytes EC50.
Series [13] deals with T3, hERG channel (Homo sapiens, UniProt Q12809).
T3 construct: host or cells: U2OS cells (ATCC)
T3 sequence (Q12809 whole entry): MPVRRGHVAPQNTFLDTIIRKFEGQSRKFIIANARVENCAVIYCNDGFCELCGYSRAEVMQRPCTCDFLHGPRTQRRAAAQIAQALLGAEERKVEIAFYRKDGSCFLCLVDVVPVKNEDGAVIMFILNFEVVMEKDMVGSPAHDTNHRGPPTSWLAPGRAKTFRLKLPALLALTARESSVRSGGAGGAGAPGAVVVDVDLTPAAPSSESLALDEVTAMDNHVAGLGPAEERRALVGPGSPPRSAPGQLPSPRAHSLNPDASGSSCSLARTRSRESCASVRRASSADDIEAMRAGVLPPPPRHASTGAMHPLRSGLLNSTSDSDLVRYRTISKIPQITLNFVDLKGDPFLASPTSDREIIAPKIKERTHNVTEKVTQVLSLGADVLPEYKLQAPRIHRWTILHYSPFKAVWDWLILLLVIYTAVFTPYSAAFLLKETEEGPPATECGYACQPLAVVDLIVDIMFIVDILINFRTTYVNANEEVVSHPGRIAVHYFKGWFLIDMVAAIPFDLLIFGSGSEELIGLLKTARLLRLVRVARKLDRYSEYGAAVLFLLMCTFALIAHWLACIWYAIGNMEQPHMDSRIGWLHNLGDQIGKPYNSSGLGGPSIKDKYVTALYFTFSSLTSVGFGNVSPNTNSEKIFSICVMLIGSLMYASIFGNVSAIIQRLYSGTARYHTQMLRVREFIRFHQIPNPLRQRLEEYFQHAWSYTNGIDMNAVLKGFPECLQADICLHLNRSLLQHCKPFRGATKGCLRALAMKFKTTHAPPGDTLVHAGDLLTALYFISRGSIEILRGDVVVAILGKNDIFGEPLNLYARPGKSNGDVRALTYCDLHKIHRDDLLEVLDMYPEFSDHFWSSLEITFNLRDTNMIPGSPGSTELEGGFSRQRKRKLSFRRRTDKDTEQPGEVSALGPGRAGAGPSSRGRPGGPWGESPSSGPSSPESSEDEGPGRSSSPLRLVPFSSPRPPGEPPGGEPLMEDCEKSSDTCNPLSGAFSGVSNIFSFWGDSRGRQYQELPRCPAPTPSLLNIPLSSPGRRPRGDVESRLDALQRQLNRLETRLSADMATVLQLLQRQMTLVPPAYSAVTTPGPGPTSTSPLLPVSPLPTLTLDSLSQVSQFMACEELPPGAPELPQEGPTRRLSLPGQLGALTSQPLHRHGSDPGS
Put plainly: hERG FluxOR-based thallium flux assay. Format: cell-based. As to conditions: In Vitro Toxicity.

Series [14] deals with JJ012 (R132G) 3D cellular spheroids. As to the kind of experiment: 2-HG production, spheroids (3D), JJ012. Format: cell-based. The settings on record: Homo sapiens; 3D spheroid, mass spec. An excerpt:
(§1) To evaluate the effect of mIDH1 inhibitors in more relevant models of solid tumors, we adapted a 3-dimensional (3D) multicellular tumor spheroid assay to monitor spheroid formation and 2-HG production. Small molecules can have diminished efficacy in multicellular tumor spheroid models due to limited penetration and the heterogeneous nature of the 3D tumor spheroid[39],[40]. We began by testing the 6 aforementioned cell lines for their ability to form spheroids in ultra-low attachment plates at varying cell concentrations (1000–5000 cells/well). […] Overall, spheroids produced less extracellular 2-HG than cells cultured in monolayer (Fig. 7B).
(§2) Using these simple 3D models of solid tumors, we assessed the ability of inhibitors to reduce 2-HG production.
(§3) 2-HG production: Cells grown as spheroids (3D)
(§4) (RBE) cells/well/150 μ L to form spheroids. Of note, we were not able to obtain spheroids using SNU1079 cells. Plates were sealed with gas permeable membranes, centrifuged at 40 rcf for 1 min, and incubated at 37°C, 5% CO2, 90% RH for 96 (HT108 0, U87 and JJ01 2) or 4 8 (RBE) h r. Cells were washed (by remo ving 10 0 μL of exhausted media and re placing it with 100 μL of growth media, twice) and treated with 50 μL of a solution of media containing the indicated compounds. Each compound was tested as an 8-point dilution series ranging from 5 μM to 2.3 nM.
(§5) After 96 hr of t reatment, 100 μL of the exhausted media was collected and snap frozen on dry ice. Samples were analyzed by LC -MS for 2- HG concentrations using Rapidfire /Mass Spectrometry (Quintara) ( 4) . Plates were first imaged on the Celigo Imaging Cytometer (Ne xcelom Bioscience) to quantify area of each spheroid. Cell viability was subsequently measured using the CellTiter-Glo assay with some modifications: 50 μL of a solution of CellTiter-Glo reagent containing a final concentration of 0.025 % Trypsin (Thermo Sci entific) was added to each well and plates were shaken at 500 rpm for 30 min before reading.

Series [15] relates to RBE (R132S) 3D cellular spheroids. Put plainly: 2-HG production, spheroids (3D), RBE. The settings on record: Homo sapiens; 3D spheroid, mass spec. Type of series: cell-based.
Description: as §1, §2, §3, §4, §5

Series [16] deals with JJ012 (R132G) cells. Put plainly: 2-HG production, monolayer (2D), mass spectrometry, JJ012. Format: cell-based. The settings on record: Homo sapiens, mass spec; for Emax: read-out: 2D Cellular 2HG Production (Mass Spec) JJ012 (R132G) % EMax; for EC50: read-out: 2D Cellular 2HG Production (Mass Spec) JJ012 (R132G) EC50. On the procedure: (§6) (Supplementary Table 2). Inhibition of the target was assessed by quantitative measurement of 2-HG levels in extracellular media of monolayer (or 2-dimentional, 2D) cultures following incubation (48 hrs) with inhibitors. […]
(§7) treated 96-well plates (Corning) at a density of 8000 cells/well/100 μL . Plates were sealed with gas permeable membranes (Research Products International Corp.) and incubated at 37°C, 5% CO2, 90% RH for 24 hr. Growth media was subsequently aspirated and replaced with 100 μL of a solution of growth media cont aining either vehicle DMSO or indicated mIDH1 inhibitor. Each compound was tested as an 8-point dilution series ranging from 5 μM to 2.3 nM. After 48 hr treatment, 75 μL of the exhausted media was collected and snap frozen on dry ice. Samples were analyzed by LC-MS for 2- HG concentrations using Rapidfire / Mass Spectrometry (Quintara) (4) . Remaining cells were assessed for viability by adding 100 μL of fresh media and 50 μL of CellTiter-Glo reagent (Promega) as per manufacturer instructions. Luminescence was read using a Vi ewLux High-throu ghpu t CCD imager (PerkinElmer) equipped with clear filters.

For series [17], the system named is RBE (R132S) cells. As to the kind of experiment: 2-HG production, monolayer (2D), mass spectrometry, RBE. As to conditions: Homo sapiens, mass spec; for Emax: read-out: 2D Cellular 2HG Production (Mass Spec) RBE (R132S) % EMax; for EC50: read-out: 2D Cellular 2HG Production (Mass Spec) RBE (R132S) EC50. Type of series: cell-based. Here is the method:
as §6, §7

Chain of IDH1 WT (O75874 whole entry): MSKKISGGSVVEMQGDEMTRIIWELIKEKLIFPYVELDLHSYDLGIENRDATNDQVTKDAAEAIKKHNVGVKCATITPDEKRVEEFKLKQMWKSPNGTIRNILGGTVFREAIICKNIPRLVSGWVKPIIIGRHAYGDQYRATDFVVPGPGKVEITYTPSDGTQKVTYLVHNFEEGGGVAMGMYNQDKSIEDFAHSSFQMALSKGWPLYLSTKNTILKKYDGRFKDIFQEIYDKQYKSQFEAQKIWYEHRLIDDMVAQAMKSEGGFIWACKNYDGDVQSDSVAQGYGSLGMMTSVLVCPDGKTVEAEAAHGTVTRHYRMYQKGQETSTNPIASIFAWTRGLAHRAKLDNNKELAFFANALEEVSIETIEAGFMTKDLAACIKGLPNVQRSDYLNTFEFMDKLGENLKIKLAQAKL

`CC(C)(O)CNc1nc(Nc2ccnc(C(F)(F)F)c2)nc(-c2cccc(C(F)(F)F)n2)n1` [AG-221, Enasidenib] registered a Papp A→B at 2 h, 10 µM in series [1] of 9.41 ×10⁻⁶ cm/s. Also, the Papp B→A at 2 h, 10 µM in series [1] was found to be 23.8 ×10⁻⁶ cm/s. In addition, the efflux ratio at 2 h, 10 µM in series [1] was determined as 2.54. Moreover, the half-life at 1 µM in series [2], in series [6] and in series [8] was > 2 h throughout. Also, the EC50 in [3] was > 30 µM; in series [7] (IDH1 WT EC50, Biochemical), 15.1 µM; in series [10], 0.044 µM; in series [12], 18.4 µM; in [13] it was > 30 µM. Moreover, the Emax was 83.4% in [3] (read-out: IDH2 % EMax); 57.7% in series [7]; 87.2% in series [10]; 33.2% in series [13] (human, U2OS cells transduced with hERG-BacMam virus). For the same compound, the solubility (kinetic) at 6 h in series [4] came to 14.2 µM (≈ 6.72 µg/mL). For the same compound, the fraction unbound at 4 h, 5 µM in [5] (read-out: Human Plasma Protein Binding % Bound (converted)) was 0.006; in [5] (read-out: Human Plasma Protein Binding % Unbound), 0.00637. In series [9], the Papp at 30 min, 0.05 mM is 1310 ×10⁻⁶ cm/s. This compound yielded a concentration for half-maximal inhibition (IC50) in [10] of 0.065 µM. For the same compound, in [11], the Emax at 72 h worked out at 84.8%.

As to `CC(C)[C@H]1COC(=O)N1c1ccnc(N[C@@H](C)c2ccc(CN3CCC(F)(F)CC3)cc2)n1` [Novartis 224], the EC50 was > 30 µM in series [3]; 0.098 µM in series [14]; 0.412 µM in series [15]; 0.121 µM in series [16]; 0.221 µM in [17]; > 30 µM in series [10]. In addition, the Emax in series [3] (read-out: IDH2 WT % EMax) is 19.4 ± 11.4%; in series [14], 87.2%; in [15] it was 86.3%; in series [16] it was 68%; in series [17] it was 109%; in series [10], 3.4%.

For the compound `CC(C)[C@H]1COC(=O)N1c1ccnc(N[C@@H](C)c2ccc(C(=O)NC3CCCC3)c(Cl)c2)n1` [Novartis 530], the EC50 in series [3] is > 30 µM; in series [14] it was 0.069 µM; in [15], 0.571 µM; in [16], 0.076 µM; in series [7] (IDH1 WT EC50, Biochemical), 3.5 µM; in [7] (IDH1 WT EC50, purified enzyme), 3.51 ± 0.17 µM. The EC50 is 0.078 µM in series [17] and > 30 µM in series [10]. For the same compound, the Emax was found to be 17.3 ± 4.4% in series [3] (read-out: IDH2 WT % EMax); 92.4% in series [14]; 86.9% in [15]; 70.5% in series [16]; 102 ± 5.8% in series [7]; 88.2% in series [17]. Further, the Emax in series [10] worked out at 3.9%.

For the compound `CC(=O)N1CCN(Cc2ccc([C@H](C)Nc3nccc(N4C(=O)OC[C@@H]4C(C)C)n3)cc2)CC1` [Novartis 556], the EC50 in series [3] is > 30 µM; in [7] (IDH1 WT EC50, purified enzyme) it was 10.5 ± 1.01 µM. For the same compound, the Emax was 20.7 ± 5.4% in series [3] (read-out: IDH2 WT % EMax) and 90 ± 7.4% in [7]. In addition, the “unbound fraction in human plasma” value in [5] (5 µM) was ~ 10 % unbound.

Turning to `CC(C)(C)CC(C)(C)c1cc(Cn2ccnc2)c(O)c(Cn2ccnc2)c1` [Sanofi 1], the EC50 in [3], in [14], in [15], in series [16], in series [17] and in series [10] was > 30 µM in each case. Also, the Emax in series [3] (read-out: IDH2 % EMax) worked out at 26.7%; in series [3] (read-out: IDH2 WT % EMax), 19.9 ± 8%; in series [14], 35.3%; in series [15], 47.3%; in [16] it was 28.8%; in [7], 18.8 ± 2.2%. The Emax in [17] worked out at 29.3%; in series [10] it was 3.2%.

Usually Papp A→B stands for how fast a substance crosses the layer from the apical side. One may read the Papp B→A as how fast a substance crosses the layer from the basolateral side. In general, efflux ratio refers to a quotient of directional permeabilities that is used to spot active efflux. Usually half-life stands for the time in which the quantity being followed falls by half. High values mean slow decline, low ones rapid decline. What is called EC50 is the midpoint of the concentration-response curve. Broadly, the Emax is the maximal effect, on the per cent scale that the assay sets. A word on the solubility (kinetic): it is solubility judged after dilution from a stock solution rather than from solid. One may read the IC50 as the concentration that inhibits the measured activity by half. Low values mean inhibition by little substance, high ones a need for much substance.

Values taken from publication PMC5630632, “Assessing inhibitors of mutant isocitrate dehydrogenase using a suite of pre-clinical discovery assays” (Scientific Reports, 2017).
